Assay [1] addresses E3 ubiquitin-protein ligase CBL-B (Homo sapiens, UniProt Q13191). The assay is described as follows: Inhibition of N-terminal Avi-tagged human CBL-B (36 to 427 residues) incubated with 60 nM Src kinase for 1.5 hrs followed by incubation with fluorescently labeled UbcH5B-Ub for 1 hr and measured by TR-FRET assay. The format is single protein.
A short description of assay [2]: Induction of anti-CD3 antibodies-stimulated human T cell activation at 1 uM assessed fold increase in CD25 expression measured by ELISA assay. Note: reference of the scale not given here. The format is functional, T cell line.
Assay [3] can be described thus: Induction of anti-CD3/CD28 antibodies-stimulated human T cell activation at 0.3 uM assessed fold increase in IL-2 secretion measured by ELISA assay. The format is functional, T cell line.
Assay [4] in a line: Induction of anti-CD3/CD28 antibodies-stimulated human T cell activation at 1 uM assessed fold increase in IL-2 secretion measured by ELISA assay. The format is functional, T cell line.
The nature of assay [5]: Induction of anti-CD3 antibodies-stimulated human T cell activation at 1 uM assessed fold increase in IL-2 secretion measured by ELISA assay. Note: reference of the scale not given here. The format is functional, T cell line.
The nature of assay [6]: Induction of anti-CD3/CD28 antibodies-stimulated human T cell activation at 0.3 uM assessed fold increase in CD25 expression measured by ELISA assay. The class given is functional, T cell line.
Assay [7] is described as follows: Induction of anti-CD3/CD28 antibodies-stimulated human T cell activation at 1 uM assessed fold increase in CD25 expression measured by ELISA assay. The class given is functional, T cell line.

A value given as a limit tells only on which side of the number the result lay.

Sequence of E3 ubiquitin-protein ligase CBL-B (Q13191 whole entry, the tested form may be a part): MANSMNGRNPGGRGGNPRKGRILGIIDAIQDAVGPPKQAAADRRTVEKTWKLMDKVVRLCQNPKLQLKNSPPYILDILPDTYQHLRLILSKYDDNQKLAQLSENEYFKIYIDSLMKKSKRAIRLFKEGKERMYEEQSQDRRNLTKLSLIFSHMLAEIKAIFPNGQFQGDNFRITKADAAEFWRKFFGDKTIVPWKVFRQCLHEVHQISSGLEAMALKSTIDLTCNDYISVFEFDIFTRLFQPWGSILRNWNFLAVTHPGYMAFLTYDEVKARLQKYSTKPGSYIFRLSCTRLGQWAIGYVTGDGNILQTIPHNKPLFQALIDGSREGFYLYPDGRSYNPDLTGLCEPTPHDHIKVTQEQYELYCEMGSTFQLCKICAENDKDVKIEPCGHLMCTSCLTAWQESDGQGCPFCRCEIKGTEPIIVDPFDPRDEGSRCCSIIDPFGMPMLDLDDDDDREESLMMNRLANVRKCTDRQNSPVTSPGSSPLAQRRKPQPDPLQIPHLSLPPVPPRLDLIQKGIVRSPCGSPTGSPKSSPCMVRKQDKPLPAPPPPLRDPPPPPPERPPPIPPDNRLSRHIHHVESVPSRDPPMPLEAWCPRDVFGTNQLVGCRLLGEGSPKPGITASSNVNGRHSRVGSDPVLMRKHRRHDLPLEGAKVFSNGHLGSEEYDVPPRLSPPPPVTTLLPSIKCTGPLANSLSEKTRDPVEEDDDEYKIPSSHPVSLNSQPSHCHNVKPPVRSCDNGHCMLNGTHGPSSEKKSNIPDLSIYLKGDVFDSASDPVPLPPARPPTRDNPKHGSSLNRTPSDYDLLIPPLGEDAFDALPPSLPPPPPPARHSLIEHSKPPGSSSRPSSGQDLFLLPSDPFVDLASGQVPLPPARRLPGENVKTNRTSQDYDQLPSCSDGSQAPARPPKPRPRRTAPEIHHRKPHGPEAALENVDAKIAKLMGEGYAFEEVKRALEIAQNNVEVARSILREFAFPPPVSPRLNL

In the case of `Cc1cn(C)c(SC(C)c2ccnc(NC(=O)c3ccc4ccccc4n3)c2)n1` (stereo unspecified), the 50% inhibitory concentration (IC50) in assay [1] is > 10 µM.
The same measure, in the same setting: to `CC(c1cc(C(=O)Nc2cccc(C3(Cc4nncn4C)COC3)c2)nc(C2CC2)n1)N1CCC2(CC2)C1` (single isomer, unassigned; 592b) belongs < 0.1 µM.
Still for that read-out and setting: to `Cn1cnnc1CC1(c2cccc(N3Cc4c(cc(CN5CC[C@@H]6OCC[C@@H]6C5)cc4C(F)(F)F)C3=O)c2)COC1` (relative stereo) belongs < 0.1 µM.
Same read-out and setting: next, `Cn1cnnc1CC1(c2cccc(N3Cc4c(cc(CN5CCc6cc(C#N)ccc6C5)cc4C(F)(F)F)C3=O)c2)COC1`: < 0.1 µM.
Regarding `Cc1cc(C(=O)Nc2cccc([C@]3(Cc4nncn4C)CCOC3)c2)nc(C2CC2)n1` (single isomer, unassigned), the “fold change (FC)” value in assay [2] is recorded as 0.601; in assay [3], 1.01; in assay [4], 2.51; in assay [5], 0.051; in assay [6] it was 1.01; in assay [7], 1.01.
With `C[C@H]1CCN(Cc2cc3c(c(C(F)(F)F)c2)CN(c2cccc(C4(Cc5nncn5C)COC4)c2)C3=O)C[C@H]1F`, in assay [1], the IC50 was < 0.1 µM.
In the case of `CN(c1cc2c(c(C(F)(F)F)c1)CN(c1cccc([C@@](C)(F)C(F)(F)c3nncn3C)c1)C2=O)[C@H]1CNC[C@H]1F`, the “fold change (FC)” value turned out to be 0.801 in assay [2]; 1.01 in assay [3]; 2.51 in assay [4]; 0.151 in assay [5]; 1.01 in assay [6]; 1.31 in assay [7].
Take `CN(c1cc2c(c(C(F)(F)F)c1)CN(c1cccc([C@@](C)(F)C(F)(F)c3nncn3C)c1)C2=O)[C@H]1CNC[C@@H]1F`: the concentration for half-maximal inhibition (IC50) in assay [1] was < 0.1 µM.
The same measure, in the same setting: next, `Cn1cnnc1CC1(c2cccc(N3Cc4c(cc(CN5CCOC(C)(C)C5)cc4C(F)(F)F)C3=O)c2)COC1`: < 0.1 µM.
Turning to `Cn1cnnc1CC1(c2cccc(N3Cc4c(cc(C(F)(F)C(=O)O)cc4C(F)(F)F)C3=O)c2)COC1`, the “fold change (FC)” value in assay [2] was 0.601; in assay [3] it was 1.01; in assay [4], 1.01; in assay [5] it was “<=0.05”; in assay [6], 1.01; in assay [7], 1.01.
Take `Cc1cnn2c(C(=O)Nc3cccc(C4(Cc5nncn5C)COC4)c3)cc(C(F)(F)F)nc12`: the “fold change (FC)” value is 0.601 in assay [2]; “<=1” in assay [3]; 1.01 in assay [4]; “<=0.05” in assay [5]; 1.01 in assay [6]; 1.01 in assay [7].
With `Cn1cnnc1CC1(c2cccc(N3Cc4c(cc(CN5CCOC(C(F)F)C5)cc4C(F)(F)F)C3=O)c2)COC1` (stereo unspecified), the half-maximal inhibitory concentration (IC50) in assay [1] is < 0.1 µM.
With `CC(C)C1CN(Cc2cc3c(c(C(F)(F)F)c2)CN(c2cccc(C4(Cc5nncn5C)COC4)c2)C3=O)CCO1` (stereo unspecified), the 50% inhibitory concentration (IC50) in assay [1] was < 0.1 µM.
`C[C@H](Sc1nncn1C)c1cccc(NC(=O)c2cc(C(=O)N3CCC[C@H]3C)ccn2)c1`: in assay [1], the half-inhibitory concentration (IC50) is > 10 µM.
Take `C[C@H](Cc1nncn1C)c1cc(C2CCOCC2)nc(N2Cc3c(cccc3C(F)(F)F)C2=O)c1`: the “fold change (FC)” value in assay [2] is “<=0.6”; in assay [3], 1.01; in assay [4], 1.01; in assay [5], “<=0.05”; in assay [6], 1.01; in assay [7] it was 1.01.
Consider `Cc1cc(C(=O)Nc2cccc(C3(Cc4nncn4C)COC3)c2)n2nc(C(F)(F)F)cc2n1`, for which the “fold change (FC)” value is listed as 0.601 in assay [2]; 1.01 in assay [3]; 1.01 in assay [4]; “<=0.05” in assay [5]; 1.01 in assay [6]; 1.01 in assay [7].
Turning to `Cc1cc(C(=O)Nc2cccc(-c3c(-c4nncn4C)cnn3C)c2)nc(C2CC2)n1`, the “fold change (FC)” value in assay [2] is on record as 0.601; in assay [3] it was 1.01; in assay [4], 1.01; in assay [5] it was 0.101; in assay [6], 1.01; in assay [7] it was 1.01.
For the compound `CN(c1cc2c(c(C(F)(F)F)c1)CN(c1cccc([C@@](C)(F)C(F)(F)c3nncn3C)c1)C2=O)[C@@H]1CNC[C@@H]1F`, the “fold change (FC)” value in assay [2] was found to be 0.601; in assay [3] it was 1.01; in assay [4] it was 2.51; in assay [5], 0.101; in assay [6], 1.01; in assay [7], 1.01.
Consider `C[C@H](Cc1nncn1C)c1cc(-c2cncs2)nc(N2Cc3c(cccc3C(F)(F)F)C2=O)c1`, for which the “fold change (FC)” value in assay [2] is listed as “<=0.6”; in assay [3], 1.01; in assay [4], 1.01; in assay [5] it was 0.051; in assay [6], 1.01; in assay [7], 1.01.
In the case of `Cn1cnnc1CC1(c2cccc(NC(=O)c3ccnc4ccnn34)c2)COC1`, the “fold change (FC)” value in assay [2] was 0.601; in assay [3], 1.01; in assay [4], 2.51; in assay [5] it was “<=0.05”; in assay [6] it was 1.01; in assay [7], 1.01.
Turning to `Cn1cnnc1-c1cnn(C)c1-c1cccc(N2Cc3c(cccc3C(F)(F)F)C2=O)c1`, the “fold change (FC)” value in assay [2] is 0.601; in assay [3], 1.01; in assay [4], 1.01; in assay [5] it was 0.051; in assay [6] it was 1.01; in assay [7], 1.01.
`Cn1cnnc1CC1(c2cccc(NC(=O)c3csc(C4CC4)n3)c2)COC1`: the “fold change (FC)” value in assay [2] is recorded as 0.601; in assay [3], 1.01; in assay [4], 1.01; in assay [5], 0.051; in assay [6] it was 1.01; in assay [7], 1.01.
Regarding `C[C@H](Cc1nncn1C)c1cc(N2Cc3c(cccc3C(F)(F)F)C2=O)nc(C2(C)CC2)c1`, the “fold change (FC)” value in assay [2] is recorded as “<=0.6”; in assay [3] it was 1.01; in assay [4], 1.01; in assay [5], 0.051; in assay [6], 1.01; in assay [7], 1.01.
With `Cn1cnnc1OC1(c2cccc(N3Cc4c(cc(CN5CCC(F)CC5)cc4C(F)(F)F)C3=O)c2)COC1`, the “fold change (FC)” value is 0.601 in assay [2]; 1.01 in assay [3]; 2.51 in assay [4]; “<=0.05” in assay [5]; 1.01 in assay [6]; 1.31 in assay [7].
`C[C@H](Cc1nncn1C)c1cc(-c2cn[nH]c2)nc(N2Cc3c(cccc3C(F)(F)F)C2=O)c1`: the “fold change (FC)” value is listed as “<=0.6” in assay [2]; “<=1” in assay [3]; “<=1” in assay [4]; 0.051 in assay [5]; “<=1” in assay [6]; “<=1” in assay [7].
Regarding `Cn1cnnc1CC1(c2cccc(NC(=O)c3nc(C4CC4)cs3)c2)COC1`, the “fold change (FC)” value in assay [2] is listed as “<=0.6”; in assay [3] it was “<=1”; in assay [4], 1.01; in assay [5], “<=0.05”; in assay [6] it was 1.01; in assay [7], 1.01.
`Cn1cnnc1CC1(c2cccc(NC(=O)c3nc(C(F)(F)F)cs3)c2)COC1`: the “fold change (FC)” value was 0.601 in assay [2]; 1.01 in assay [3]; 2.51 in assay [4]; “<=0.05” in assay [5]; 1.01 in assay [6]; 1.01 in assay [7].
`Cn1cnnc1CC1(c2cccc(N3Cc4c(cc(C5=CN6CCC5CC6)cc4C(F)(F)F)C3=O)c2)COC1`: the “fold change (FC)” value is on record as 0.601 in assay [2]; 1.01 in assay [3]; 2.51 in assay [4]; “<=0.05” in assay [5]; 1.01 in assay [6]; 1.01 in assay [7].
On to `Cn1cnnc1CC1(c2cccc(N3Cc4c(ccc(F)c4C4CC4)C3=O)c2)COC1`, for which the “fold change (FC)” value in assay [2] is on record as 0.601; in assay [3], 1.01; in assay [4], 1.01; in assay [5], 0.051; in assay [6], 1.01; in assay [7], 1.01.
As for `Cn1cnnc1[C@@H](F)C1(c2cccc(N3Cc4c(cc(CN5C6CCCC5CC6)cc4C(F)(F)F)C3=O)c2)COC1` (stereo in doubt; 675a), the “fold change (FC)” value is on record as “>=1.001” in assay [2] (1 µM), 0.101 in assay [5] (1 µM), 1.01 in assay [6] (0.3 µM) and 1.31 in assay [7] (1 µM).
Turning to `Cc1cc(C(=O)Nc2cccc(C3(Cc4nncn4C)COC3)c2)n2nccc2n1`, the “fold change (FC)” value in assay [2] is recorded as 0.601; in assay [3], 1.01; in assay [4] it was 1.01; in assay [5] it was “<=0.05”; in assay [6], 1.01; in assay [7], 1.01.
`Cn1cnnc1[C@H](F)C1(c2cccc(N3Cc4c(cc(CN5C6CCCC5CC6)cc4C(F)(F)F)C3=O)c2)COC1` (stereo in doubt; 675b): the “fold change (FC)” value in assay [6] (0.3 µM) and in assay [7] (1 µM) was 1.31 throughout.
